These results are taken from patent publication US11230535B2, “CFTR regulators and methods of use thereof” (THE REGENTS OF THE UNIVERSITY OF CALIFORNIA, priority 2015, dated 2022).

Entries after “also recorded” stand apart in the source; their conditions may differ.

One assay addresses T1, TMEM16A (Homo sapiens, UniProt Q5XXA6).
T1 construct: expressed in transfected cells; host or cells: Fischer rat thyroid (FRT) cells stably co-expressing YFP-H148Q
T1 sequence (Q5XXA6 1-986): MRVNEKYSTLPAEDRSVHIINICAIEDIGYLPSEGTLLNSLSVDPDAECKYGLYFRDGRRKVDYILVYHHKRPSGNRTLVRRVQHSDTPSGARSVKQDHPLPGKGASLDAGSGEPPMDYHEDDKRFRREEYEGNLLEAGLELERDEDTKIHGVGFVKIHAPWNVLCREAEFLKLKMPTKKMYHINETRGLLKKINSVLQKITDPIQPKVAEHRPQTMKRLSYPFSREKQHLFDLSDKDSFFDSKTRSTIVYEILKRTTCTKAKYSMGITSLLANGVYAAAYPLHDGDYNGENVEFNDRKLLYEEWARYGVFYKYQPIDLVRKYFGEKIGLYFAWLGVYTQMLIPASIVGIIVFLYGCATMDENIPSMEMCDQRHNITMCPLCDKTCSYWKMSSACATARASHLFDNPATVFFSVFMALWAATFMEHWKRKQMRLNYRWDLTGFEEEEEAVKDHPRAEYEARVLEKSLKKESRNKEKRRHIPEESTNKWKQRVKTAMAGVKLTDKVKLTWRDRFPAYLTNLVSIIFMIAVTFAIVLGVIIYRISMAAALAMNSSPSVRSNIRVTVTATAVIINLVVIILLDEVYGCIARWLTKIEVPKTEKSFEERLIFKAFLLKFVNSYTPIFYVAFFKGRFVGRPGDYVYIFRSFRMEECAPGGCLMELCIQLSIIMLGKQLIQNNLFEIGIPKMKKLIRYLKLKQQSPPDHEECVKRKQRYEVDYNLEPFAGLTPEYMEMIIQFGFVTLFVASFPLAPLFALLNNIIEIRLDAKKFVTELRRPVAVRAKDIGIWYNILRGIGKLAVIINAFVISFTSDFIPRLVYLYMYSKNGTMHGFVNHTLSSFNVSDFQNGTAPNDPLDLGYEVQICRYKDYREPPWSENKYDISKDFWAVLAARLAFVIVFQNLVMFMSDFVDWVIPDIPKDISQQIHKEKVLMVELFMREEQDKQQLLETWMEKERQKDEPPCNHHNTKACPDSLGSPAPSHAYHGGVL
In words: TMEM16A plate reader assay in FRT cells expressing YFP and TMEM16A. The assay is classed as cell-based. The settings on record: 10 μM. As to the method:
(§1) Platereader assays of chloride channel function. CFTR activity was assayed as described. FRT cells co-expressing YFP and wildtype CFTR were washed with phosphate-buffered saline (PBS) and then incubated for 10 min with test compounds in PBS containing 125 nM forskolin. I^− influx was measured in a plate reader with initial baseline read for 2 s and then for 12 s after rapid addition of an I^−-containing solution. TMEM16A activity was assayed similarly as described using FRT cells co-expressing YFP and TMEM16A. Activity of non-TMEM16A CaCC was assayed as described in HT-29 cells expressing YFP. In each assay initial rates of I^− influx were computed as a linear measure of channel function.

A further assay deals with CaCC in HT-29 cells. In words: Non-TMEM16A CaCC plate reader assay in HT-29 cells expressing YFP. Format: cell-based. The settings on record: 10 μM. As to the method: as §1
In assay [1] the test system is CFTR activity at the ocular surface. Kind of assay: Ocular surface potential difference (PD) in living mice. The assay is classed as in vivo, mouse. The settings on record: wild-type mice; for change in ocular surface PD, in words: 1-10 μM. As to the method:
(§2) Open-circuit transepithelial PD were measured continuously in anesthetized mice in response to serial perfusions of different solutions over the ocular surface, as described (21). Mice were anesthetized with Avertin (2,2,2-tribromoethanol, 125 mg/kg intraperitoneal, Sigma-Aldrich, St. Louis, Mo., USA), and core temperature was maintained at 37° C. using a heating pad. Eyes were oriented with the cornea and conjunctiva facing upward and exposed by retracting the eyelid with cross-action forceps. Solutions were isosmolar (320±10 mOsM; compositions provided in ref. 21) and contained 10μ[…] Qindomethacin to prevent CFTR activation by prostaglandins. The ocular surface was perfused at 6 mL/min through plastic tubing using a multireservoir gravity pinch-valve system (ALA Scientific, Westbury, N.Y., USA) and variable-flow peristaltic pump (medium flow model; Fisher Scientific, Fair Lawn, N.J., USA). A probe catheter was fixed 1 mm above the cornea using a micropositioner and a suction cannula was positioned 3 mm from the orbit. The measuring electrode was in contact to the perfusion catheter and connected to a high-impedance voltmeter (IsoMilivolt Meter; WPI). The reference electrode was grounded via a winged 21-gauge needle filled with isosmolar saline, and inserted subcutaneously in the abdomen. Measuring and reference electrodes consisted of Ag/AgCl with 3 M KCl agar bridges.
An open-circuit potential difference (PD) method developed in our lab was used to evaluate compound activity at the ocular surface in vivo, as depicted in FIG. 3A (21). Cl^− channel function was quantified by measuring PD during continuous perfusion of the ocular surface with a series of solutions that imposed a transepithelial Cl^− gradient and contained various channel agonists and/or inhibitors. The ocular surface was first perfused with isosmolar saline to record the baseline PD. Amiloride was then added to the perfusate, followed by exchange to a low Cl^− solution in which Cl^− with an impermeant anion, gluconate. These maneuvers allow for direct visualization of CFTR activation in response to addition of candidate CFTR activators.
as §2, with “Ocular surface potential difference measurements. Open-circuit” for “Open-circuit”, “indomethacin” for “Qindomethacin”, “Measuring and reference electrodes consisted of Ag/AgCl with 3 M KCl agar bridges.” left out

Consider `CCN(CC)c1nc(Nc2ccc3ncsc3c2)nc(OC(C(F)(F)F)C(F)(F)F)n1` [6k, N′-(1,3-Benzothiazol-6-yl)-N,N-diethyl-6-[(1,1,1,3,3,3-hexafluoropropan-2-yl)oxy]-1,3,5-triazine-2,4-diamine], for which the “effect on calcium-activated chloride channels in TMEM16A-expressing FRT cells” value at TMEM16A was “no inhibition; also recorded: neither inhibited nor activated”. In addition, the “effect on calcium-activated chloride channels in HT-29 cells” value with CaCC in HT-29 cells is “no activation; also recorded: neither inhibited nor activated”.
Consider `Nc1ccc([N+](=O)[O-])cc1-c1nc2ccccc2n(Cc2ccccc2)c1=O` [CFTRact-J027, 3-(2-amino-5-nitrophenyl)-1-benzylquinoxalin-2(1H)-one], for which the “change in ocular surface PD, in words” value in assay [1] is on record as “large hyperpolarizations”.
Take `CCN(CC)c1nc(Nc2ccccc2)nc(OC(C(F)(F)F)C(F)(F)F)n1` [CFTRact-K089, N,N-Diethyl-6-[(1,1,1,3,3,3-hexafluoropropan-2-yl)oxy]-N′-phenyl-1,3,5-triazine-2,4-diamine]: in assay [1], the “hyperpolarization in ocular surface potential difference” value is roughly 8.5 mV and the “change in ocular surface PD, in words” value is listed as “large hyperpolarizations”.
As to `CC(C)(C)c1cc(C(C)(C)C)c(NC(=O)c2c[nH]c3ccccc3c2=O)cc1O` [VX-770, reference compound], the “change in ocular surface PD, in words” value in assay [1] is “minimal changes in ocular surface PD”.
For the compound `CNc1nc(Nc2ccccc2)nc(OCC(F)(F)C(F)F)n1` [compound 12, N-methyl-N′-phenyl-6-(2,2,3,3-tetrafluoropropoxy)-1,3,5-triazine-2,4-diamine], the “effect on calcium-activated chloride channels in TMEM16A-expressing FRT cells” value at TMEM16A is on record as “no inhibition; also recorded: neither inhibited nor activated”. The “effect on calcium-activated chloride channels in HT-29 cells” value in the assay on CaCC in HT-29 cells is given as “no activation; also recorded: neither inhibited nor activated”.
